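How tested: cells in 96-well plates exposed to compound for 48 hours at five concentrations. Definition used: TGI = concentration required for complete inhibition of growth.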
Columns and labels:
Test in all cases: growth of human tumour cells (NCI), 48 h
DMS 114 small cell lung = tested on: DMS 114 small cell lung
KM20L2 colon = tested on: KM20L2 colon
DMS 273 small cell lung = tested on: DMS 273 small cell lung
M19-MEL melanoma = tested on: M19-MEL melanoma
DLD-1 colon = tested on: DLD-1 colon
HOP-18 NSCLC = tested on: HOP-18 NSCLC
LXFL 529 NSCLC = tested on: LXFL 529 NSCLC
RXF-631 renal = tested on: RXF-631 renal
XF 498 CNS = tested on: XF 498 CNS

How did the TGI (DMS 114 small cell lung) turn out when `CCOC(=O)c1cc2c(nc1N)-c1ncccc1CC2` was run?
The TGI was 33 µM.

And the TGI (KM20L2 colon)?
The TGI was > 100 µM.

What about the TGI (DMS 273 small cell lung) of the same compound?
Its TGI is > 100 µM.

And the TGI (M19-MEL melanoma)?
The TGI was > 100 µM.

And the TGI (DLD-1 colon)?
Its TGI is > 100 µM.

What about the TGI (HOP-18 NSCLC) of the same compound?
The TGI was > 100 µM.

What about the TGI (LXFL 529 NSCLC) of the same compound?
The TGI was > 100 µM.

And the TGI (RXF-631 renal)?
The TGI was > 100 µM.

Which results are given for `CC1(C)OC(C[C@]2(C#N)C[C@H](CCl)OC(C)(C)O2)C[C@@H](C[C@]2(C#N)C[C@H](CCl)OC(C)(C)O2)O1` (some centres not stated)?
TGI (KM20L2 colon): > 100 µM; TGI (DMS 273 small cell lung): > 100 µM; TGI (M19-MEL melanoma): > 100 µM; TGI (XF 498 CNS): > 100 µM; TGI (DLD-1 colon): > 100 µM; TGI (HOP-18 NSCLC): > 100 µM; TGI (LXFL 529 NSCLC): > 100 µM

How did the TGI (DMS 114 small cell lung) turn out when `CC(Oc1ccc(OCC2CCCCC2)cc1)C(N)=O` (configuration not stated) was run?
Its TGI is > 100 µM.

What about the TGI (DMS 273 small cell lung) of the same compound?
Its TGI is > 100 µM.

And the TGI (M19-MEL melanoma)?
The TGI was > 100 µM.

What about the TGI (XF 498 CNS) of the same compound?
The TGI was > 100 µM.

And the TGI (DLD-1 colon)?
The TGI was > 100 µM.

What about the TGI (HOP-18 NSCLC) of the same compound?
The TGI was > 100 µM.

And the TGI (LXFL 529 NSCLC)?
The TGI was > 100 µM.

Which results are given for `CCCCCCCCOC(CO)CO`?
TGI (DMS 114 small cell lung): > 100 µM; TGI (KM20L2 colon): > 100 µM; TGI (DMS 273 small cell lung): > 100 µM; TGI (M19-MEL melanoma): > 100 µM; TGI (DLD-1 colon): > 100 µM; TGI (HOP-18 NSCLC): > 100 µM; TGI (LXFL 529 NSCLC): > 100 µM

Which TGI (DMS 114 small cell lung) does the source give for `CC(=O)C1=C(C)Cn2c(=O)c3ccccc3c(=O)n2C1` here?
The TGI was > 100 µM.

What about the TGI (KM20L2 colon) of the same compound?
Its TGI is > 100 µM.

And the TGI (DMS 273 small cell lung)?
The TGI was > 100 µM.

And the TGI (M19-MEL melanoma)?
The TGI was > 100 µM.

What about the TGI (DLD-1 colon) of the same compound?
Its TGI is > 100 µM.

What about the TGI (LXFL 529 NSCLC) of the same compound?
The TGI was > 100 µM.

And the TGI (RXF-631 renal)?
The TGI was > 100 µM.

How did the TGI (DMS 114 small cell lung) turn out when `CC(O)C(N=Cc1nc(-c2ccccc2)oc1O)C(=O)O` (configuration not stated) was run?
The TGI was > 100 µM.

What about the TGI (KM20L2 colon) of the same compound?
The TGI was > 100 µM.

What about the TGI (DMS 273 small cell lung) of the same compound?
Its TGI is > 100 µM.

And the TGI (M19-MEL melanoma)?
The TGI was > 100 µM.

What about the TGI (XF 498 CNS) of the same compound?
The TGI was > 100 µM.

What about the TGI (DLD-1 colon) of the same compound?
The TGI was > 100 µM.

And the TGI (HOP-18 NSCLC)?
The TGI was > 100 µM.

And the TGI (LXFL 529 NSCLC)?
The TGI was > 100 µM.

What about the TGI (RXF-631 renal) of the same compound?
Its TGI is > 100 µM.

How did the TGI (DMS 114 small cell lung) turn out when `COc1ccc2c3c(n(Cc4ccccc4)c(=O)c2c1)-c1cc(OC)c(OC)cc1C3C` (configuration not stated) was run?
The TGI was > 89.2 µM.

And the TGI (KM20L2 colon)?
Its TGI is > 100 µM.

What about the TGI (DMS 273 small cell lung) of the same compound?
The TGI was 38.6 µM.

What about the TGI (M19-MEL melanoma) of the same compound?
The TGI was > 73.1 µM.

What about the TGI (XF 498 CNS) of the same compound?
Its TGI is 38 µM.

And the TGI (DLD-1 colon)?
Its TGI is > 100 µM.

And the TGI (HOP-18 NSCLC)?
Its TGI is > 100 µM.

And the TGI (LXFL 529 NSCLC)?
Its TGI is > 53 µM.

And the TGI (RXF-631 renal)?
Its TGI is > 100 µM.

How did the TGI (DMS 114 small cell lung) turn out when `O=C1CCCC/C1=C1\C(=O)Nc2cc(F)ccc21` was run?
The TGI was > 100 µM.

And the TGI (KM20L2 colon)?
Its TGI is > 100 µM.

What about the TGI (DMS 273 small cell lung) of the same compound?
Its TGI is > 100 µM.

What about the TGI (M19-MEL melanoma) of the same compound?
The TGI was > 100 µM.

And the TGI (XF 498 CNS)?
The TGI was > 100 µM.

And the TGI (DLD-1 colon)?
Its TGI is > 100 µM.

And the TGI (HOP-18 NSCLC)?
Its TGI is > 100 µM.

And the TGI (LXFL 529 NSCLC)?
Its TGI is > 100 µM.

How did the TGI (DMS 114 small cell lung) turn out when `CC1(C)CC(=O)C2=C(C1)S/C(=C1/SC3=C(S1)C(=O)CC(C)(C)C3)S2` was run?
Its TGI is > 251 µM.

And the TGI (KM20L2 colon)?
Its TGI is > 251 µM.

What about the TGI (DMS 273 small cell lung) of the same compound?
The TGI was > 251 µM.

What about the TGI (M19-MEL melanoma) of the same compound?
Its TGI is > 251 µM.

And the TGI (XF 498 CNS)?
Its TGI is > 251 µM.

What about the TGI (DLD-1 colon) of the same compound?
The TGI was > 251 µM.

What about the TGI (HOP-18 NSCLC) of the same compound?
The TGI was > 251 µM.

What about the TGI (LXFL 529 NSCLC) of the same compound?
Its TGI is > 251 µM.

`CCCc1c[nH]c(-c2ccc(-c3cc(CCC)c(C=O)[nH]3)s2)c1` was tested. Which TGI (DMS 114 small cell lung) did it give?
Its TGI is 27.8 µM.

What about the TGI (DMS 273 small cell lung) of the same compound?
The TGI was 30.3 µM.

And the TGI (M19-MEL melanoma)?
Its TGI is 21.6 µM.

And the TGI (XF 498 CNS)?
The TGI was 32.7 µM.

And the TGI (DLD-1 colon)?
The TGI was 28.4 µM.

What about the TGI (HOP-18 NSCLC) of the same compound?
The TGI was 43 µM.

And the TGI (LXFL 529 NSCLC)?
Its TGI is 32.8 µM.
